Test systems include OVCAR-8; SR; RPMI-8226; HCC 2998; HCT-116; KM12; EKVX; SK-MEL-2; HCT-15; HT-29; NCI-H226; NCI-H23; OVCAR-3; IGROV-1; A549; LOX IMVI; UO-31; M14; NCI-H522; NCI/ADR-RES.
What all share (test): DTP human tumour cell line panel, 48 h

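Grown in 96-well plates, cells were treated for 48 hours with each compound at five concentrations. Insufficient inhibition: endpoint recorded as highest concentration tested. Abbreviation: GI50, concentration required for 50% inhibition of growth.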 Activity calls are given as the source filed them. Cut-off read from the data, not from the text of the source: active = GI50 up to about 1.1 µM and inactive = higher.

In the case of `C#C[C@]1(O)[C@@H](CO)O[C@@H](n2ccc(=O)[nH]c2=O)[C@@H]1O`, the GI50 (usually the concentration at which growth is held to half of that of the control) in the test with OVCAR-8 is < 0.01 µM (active); in the test on SR, 62.4 µM (inactive); with RPMI-8226, 0.0101 µM (active); in the test on HCC 2998, 0.0592 µM (active); in the test with HCT-116, < 0.01 µM (active); in the test on KM12, 0.144 µM (active). Moreover, the GI50 in the test with EKVX was 4.72 µM (inactive); with SK-MEL-2 it was 0.15 µM (active); with HCT-15 it was 0.0186 µM; with HT-29, 0.0171 µM (active); in the test with NCI-H226, 0.0746 µM (active); in the test with NCI-H23, 0.428 µM (active). Also, the concentration for 50% growth inhibition (GI50) in the test on OVCAR-3 is 0.513 µM (active); in the test on IGROV-1, 0.0745 µM (active); in the test on A549, 0.0308 µM (active); in the test on LOX IMVI, 0.0246 µM (active); in the test on UO-31, 0.0278 µM (active); in the test on M14, 0.237 µM (active). Besides, the concentration for 50% growth inhibition (GI50) in the test on NCI-H522 was 0.0214 µM (active); with NCI/ADR-RES, < 0.0134 µM (active).

Consider `CCCSc1ccc2[nH]c(N3C(=O)/C(=C/c4cc(OC)c(OC)c(OC)c4)N=C3c3ccccc3)cc2c1`, for which the GI50 in the test on OVCAR-8 was 12.6 µM (inactive); with SR, 1.66 µM (inactive); in the test with RPMI-8226, 9.18 µM (inactive); with HCC 2998, 13.2 µM (inactive); in the test on HCT-116 it was 16.5 µM (inactive); with KM12, 1.65 µM (inactive). The GI50 in the test on EKVX was 5.74 µM (inactive); in the test with SK-MEL-2 it was 18.4 µM (inactive); with HCT-15, 12.2 µM; with HT-29 it was 7.82 µM (inactive); in the test on NCI-H226, > 37.5 µM (inactive); in the test on NCI-H23, 10.9 µM (inactive). In addition, the GI50 was 9.12 µM (inactive) with OVCAR-3; 9.38 µM (inactive) with IGROV-1; 0.553 µM (active) in the test on A549; 12.2 µM (inactive) in the test with LOX IMVI; 15.1 µM (inactive) in the test with UO-31; 10.4 µM (inactive) in the test with M14. The GI50 in the test on NCI-H522 was 8.97 µM (inactive); in the test with NCI/ADR-RES, 11.6 µM (inactive).

(Values after ChEMBL document CHEMBL1201862, “PubChem BioAssay data set” (2004).)
